Test results as given in patent US8669252B2, “Prolylcarboxypeptidase inhibitors” (Merck Sharp & Dohme Corp., priority 2010, dated 2014).
pIC50: −log10 of the molar value.

Tests used:
[1] = tested on: obese, leptin deficient mice; conditions: systemic administration to obese; cited from earlier work
rats = conditions: intracerebroventricular administration to rats; cited from earlier work
[2] = in vivo; cited from earlier work
human PrCP = human PrCP (Homo sapiens (Human), UniProt P42785); test: biochemical
human PrCP, sequence (P42785 46-496): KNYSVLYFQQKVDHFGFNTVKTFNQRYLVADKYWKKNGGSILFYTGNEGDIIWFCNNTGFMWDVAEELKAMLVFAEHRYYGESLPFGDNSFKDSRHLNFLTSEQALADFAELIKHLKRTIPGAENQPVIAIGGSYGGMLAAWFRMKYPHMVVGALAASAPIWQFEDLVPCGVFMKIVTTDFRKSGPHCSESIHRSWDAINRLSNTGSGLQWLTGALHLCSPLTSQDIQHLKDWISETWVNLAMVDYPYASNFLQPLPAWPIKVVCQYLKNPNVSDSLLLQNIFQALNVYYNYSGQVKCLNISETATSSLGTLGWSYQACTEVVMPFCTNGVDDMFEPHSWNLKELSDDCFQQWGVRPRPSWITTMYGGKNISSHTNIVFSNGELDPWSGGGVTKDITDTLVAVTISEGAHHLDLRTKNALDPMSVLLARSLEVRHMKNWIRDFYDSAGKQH
Method: The assay was performed using a Hamilton Star liquid handling workstation. The assay employed the internally quenched fluorescent substrate (1S)-1-carboxy-5-[(2,4-dinitrophenyl)amino]pentyl N-[(7-methoxy-2-oxo-2H-chromen-4-yl)acetyl]-L-alanyl-L-prolinate prepared in house.
The assay also contained 2% DMSO used to solubilize the substrate and inhibitor. Inhibitors were prepared in 100% DMSO and serial diluted (in 100% DMSO) to generate 11 point titration curves. Either 39 uL of human or mouse PrCP enzyme was added to the wells of the assay plate, followed by a 1 uL addition of the serially diluted inhibitor and mixed three times using a 30 uL mix volume. The reaction was initiated by the addition of 10 uL substrate and mixed three times using a 30 uL mix volume. […] IC50 values were calculated by comparing the resulting rates of reaction of the inhibited and control initial velocities.
The enzymes were diluted in a mixture of 10 mM NaOAc (pH 5.5)/100 mM NaCl buffer containing 25 ug/mL bovine serum albumin that had been warmed to 37° C. in a water bath. The PrCP inhibitor test compounds were plated in 100% DMSO with a highest concentration of 500 uM. There were 12 dilution points for each compound tested including a blank with DMSO only. […]

Molecule: t-butyl carbamate-prolyl prolinal [BPP]
- overnight food intake [1]: suppression of overnight food intake
- overnight food intake (rats): suppression of overnight food intake

Molecule: CCN[C@@H](C)Cc1cccc(C(F)(F)F)c1 [dexfenfluramine]
- weight loss, of body weight for drug compared to placebo [2]: 5%-10%

Molecule: CCCCCCCCCCC[C@@H](C[C@@H]1OC(=O)[C@H]1CCCCCC)OC(=O)[C@H](CC(C)C)NC=O [orlistat]
- weight loss, of body weight for drug compared to placebo [2]: 5%-10%

Molecule: CC(C)CC(N(C)C)C1(c2ccc(Cl)cc2)CCC1 (stereo not shown) [sibutramine]
- weight loss, of body weight for drug compared to placebo [2]: 5%-10%

Molecule: O=C(NC(c1ccc(F)cc1)c1ccc(F)cc1)C1CCC(N2CCOCC2)CC1c1ccc(F)cc1 (single isomer, unassigned) [Example 4, N-[bis(4-fluorophenyl)methyl]-2-(4-fluorophenyl)-4-(morpholin-4-yl)cyclohexanecarboxamide]
- pIC50 (human PrCP): 8.68

Molecule: CC(C)(N)Cc1ccccc1 [phentermine]
- weight loss, of body weight for drug compared to placebo [2]: 5%-10%
